Assay results reported in ChEMBL document CHEMBL2010748, “Structure-Activity Relationship Studies of HIV-1 Integrase Oligonucleotide Inhibitors” (ACS Med Chem Lett, 2011).

What follows are compounds tested against Human immunodeficiency virus type 1 integrase (Human immunodeficiency virus 1, UniProt Q7ZJM1) (assay: Inhibition of Human immunodeficiency virus 1 integrase 3'-processing activity expressed in Escherichia coli using 21-mer DNA and Mg2+ after 2 hrs by polyacrylamide gel electrophoresis).
Human immunodeficiency virus type 1 integrase, sequence (Q7ZJM1 whole entry): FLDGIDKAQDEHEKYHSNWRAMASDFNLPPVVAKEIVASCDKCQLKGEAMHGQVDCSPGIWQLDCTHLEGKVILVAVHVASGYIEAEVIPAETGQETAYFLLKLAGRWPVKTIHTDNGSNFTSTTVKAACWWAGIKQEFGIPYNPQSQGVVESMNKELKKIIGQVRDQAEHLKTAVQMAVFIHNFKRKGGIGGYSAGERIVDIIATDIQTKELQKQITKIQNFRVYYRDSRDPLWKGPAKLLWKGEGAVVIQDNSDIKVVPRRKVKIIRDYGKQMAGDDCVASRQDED

`Cc1cn([C@H]2C[C@H](OP(=O)(O)OC[C@H]3O[C@@H](n4cc(C)c(=O)[nH]c4=O)C[C@@H]3OP(=O)(O)OC[C@H]3O[C@@H](n4cc(C)c(=O)[nH]c4=O)C[C@@H]3OP(=O)(O)OC[C@H]3O[C@@H](n4cnc5c(=O)[nH]c(N)nc54)C[C@@H]3OP(=O)(O)OC[C@H]3O[C@@H](n4cc(C)c(=O)[nH]c4=O)C[C@@H]3OP(=O)(O)OC[C@H]3O[C@@H](n4cnc5c(=O)[nH]c(N)nc54)C[C@@H]3OP(=O)(O)OC[C@H]3O[C@@H](n4cc(C)c(=O)[nH]c4=O)C[C@@H]3OP(=O)(O)OCCCCCCNC(=S)Nc3ccc(-c4c5ccc(=O)cc-5oc5cc(O)ccc45)c(C(=O)O)c3)[C@@H](COP(=O)(O)O[C@H]3C[C@H](n4cc(C)c(=O)[nH]c4=O)O[C@@H]3COP(=O)(O)O[C@H]3C[C@H](n4cc(C)c(=O)[nH]c4=O)O[C@@H]3COP(=O)(O)O[C@H]3C[C@H](n4cnc5c(=O)[nH]c(N)nc54)O[C@@H]3COP(=O)(O)O[C@H]3C[C@H](n4cnc5c(=O)[nH]c(N)nc54)O[C@@H]3CO)O2)c(=O)[nH]c1=O` and `Cc1cn([C@H]2C[C@H](OP(=O)(O)OC[C@H]3O[C@@H](n4cc(C)c(=O)[nH]c4=O)C[C@@H]3OP(=O)(O)OC[C@H]3O[C@@H](n4cc(C)c(=O)[nH]c4=O)C[C@@H]3OP(=O)(O)OC[C@H]3O[C@@H](n4cnc5c(=O)[nH]c(N)nc54)C[C@@H]3OP(=O)(O)OC[C@H]3O[C@@H](n4cc(C)c(=O)[nH]c4=O)C[C@@H]3OP(=O)(O)OC[C@H]3O[C@@H](n4cnc5c(=O)[nH]c(N)nc54)C[C@@H]3OP(=O)(O)OC[C@H]3O[C@@H](n4cc(C)c(=O)[nH]c4=O)C[C@@H]3O)[C@@H](COP(=O)(O)O[C@H]3C[C@H](n4cc(C)c(=O)[nH]c4=O)O[C@@H]3COP(=O)(O)O[C@H]3C[C@H](n4cc(C)c(=O)[nH]c4=O)O[C@@H]3COP(=O)(O)O[C@H]3C[C@H](n4cnc5c(=O)[nH]c(N)nc54)O[C@@H]3COP(=O)(O)O[C@H]3C[C@H](n4cnc5c(=O)[nH]c(N)nc54)O[C@@H]3COP(=O)(O)OCCCCCCNC(=O)c3cc(Cl)c(C(=O)O)c(-c4c5cc(Cl)c(=O)cc-5oc5cc(O)c(Cl)cc45)c3Cl)O2)c(=O)[nH]c1=O` are within 1.5-fold of each other in IC50: 315 nM for the first, 290 nM for the second.

`Cc1cn([C@H]2C[C@H](OP(=O)(O)OC[C@H]3O[C@@H](n4cc(C)c(=O)[nH]c4=O)C[C@@H]3OP(=O)(O)OC[C@H]3O[C@@H](n4cc(C)c(=O)[nH]c4=O)C[C@@H]3OP(=O)(O)OC[C@H]3O[C@@H](n4cnc5c(=O)[nH]c(N)nc54)C[C@@H]3OP(=O)(O)OC[C@H]3O[C@@H](n4cc(C)c(=O)[nH]c4=O)C[C@@H]3OP(=O)(O)OC[C@H]3O[C@@H](n4cnc5c(=O)[nH]c(N)nc54)C[C@@H]3OP(=O)(O)OC[C@H]3O[C@@H](n4cc(C)c(=O)[nH]c4=O)C[C@@H]3O)[C@@H](COP(=O)(O)O[C@H]3C[C@H](n4cc(C)c(=O)[nH]c4=O)O[C@@H]3COP(=O)(O)O[C@H]3C[C@H](n4cc(C)c(=O)[nH]c4=O)O[C@@H]3COP(=O)(O)O[C@H]3C[C@H](n4cnc5c(=O)[nH]c(N)nc54)O[C@@H]3COP(=O)(O)O[C@H]3C[C@H](n4cnc5c(=O)[nH]c(N)nc54)O[C@@H]3COP(=O)(O)OCCCCCCNC(=O)c3cc(Cl)c(C(=O)O)c(-c4c5cc(Cl)c(=O)c(Cl)c-5oc5c(Cl)c(O)c(Cl)cc45)c3Cl)O2)c(=O)[nH]c1=O` and `Cc1cn([C@H]2C[C@H](OP(=O)(O)OC[C@H]3O[C@@H](n4cc(C)c(=O)[nH]c4=O)C[C@@H]3OP(=O)(O)OC[C@H]3O[C@@H](n4cc(C)c(=O)[nH]c4=O)C[C@@H]3OP(=O)(O)OC[C@H]3O[C@@H](n4cnc5c(=O)[nH]c(N)nc54)C[C@@H]3OP(=O)(O)OC[C@H]3O[C@@H](n4cc(C)c(=O)[nH]c4=O)C[C@@H]3OP(=O)(O)OC[C@H]3O[C@@H](n4cnc5c(=O)[nH]c(N)nc54)C[C@@H]3OP(=O)(O)OC[C@H]3O[C@@H](n4cc(C)c(=O)[nH]c4=O)C[C@@H]3O)[C@@H](COP(=O)(O)O[C@H]3C[C@H](n4cc(C)c(=O)[nH]c4=O)O[C@@H]3COP(=O)(O)O[C@H]3C[C@H](n4cc(C)c(=O)[nH]c4=O)O[C@@H]3COP(=O)(O)O[C@H]3C[C@H](n4cnc5c(=O)[nH]c(N)nc54)O[C@@H]3COP(=O)(O)O[C@H]3C[C@H](n4cnc5c(=O)[nH]c(N)nc54)O[C@@H]3COP(=O)(O)OCCCCCCNC(=O)c3cc(Cl)c(-c4c5cc(Cl)c(O)c(Cl)c5nc5c(Cl)c(O)c(Cl)cc45)c(C(=O)O)c3Cl)O2)c(=O)[nH]c1=O` are within 1.5-fold of each other in IC50: 55 nM for the first, 52 nM for the second.

First: COc1cc2c(-c3cc(C(=O)NCCCCCCOP(=O)(O)OC[C@H]4O[C@@H](n5cnc6c(=O)[nH]c(N)nc65)C[C@@H]4OP(=O)(O)OC[C@H]4O[C@@H](n5cnc6c(=O)[nH]c(N)nc65)C[C@@H]4OP(=O)(O)OC[C@H]4O[C@@H](n5cc(C)c(=O)[nH]c5=O)C[C@@H]4OP(=O)(O)OC[C@H]4O[C@@H](n5cc(C)c(=O)[nH]c5=O)C[C@@H]4OP(=O)(O)OC[C@H]4O[C@@H](n5cc(C)c(=O)[nH]c5=O)C[C@@H]4OP(=O)(O)OC[C@H]4O[C@@H](n5cc(C)c(=O)[nH]c5=O)C[C@@H]4OP(=O)(O)OC[C@H]4O[C@@H](n5cc(C)c(=O)[nH]c5=O)C[C@@H]4OP(=O)(O)OC[C@H]4O[C@@H](n5cnc6c(=O)[nH]c(N)nc65)C[C@@H]4OP(=O)(O)OC[C@H]4O[C@@H](n5cc(C)c(=O)[nH]c5=O)C[C@@H]4OP(=O)(O)OC[C@H]4O[C@@H](n5cnc6c(=O)[nH]c(N)nc65)C[C@@H]4OP(=O)(O)OC[C@H]4O[C@@H](n5cc(C)c(=O)[nH]c5=O)C[C@@H]4O)ccc3C(=O)O)c3cc(OC)c(=O)c(Cl)c-3oc2c(Cl)c1O
Second: CCCCCCCC/C=C\CCCCCCCC(=O)NCCCOCC(O)COP(=O)(O)O[C@H]1C[C@H](n2cc(C)c(=O)[nH]c2=O)O[C@@H]1COP(=O)(O)O[C@H]1C[C@H](n2cnc3c(=O)[nH]c(N)nc32)O[C@@H]1COP(=O)(O)O[C@H]1C[C@H](n2cc(C)c(=O)[nH]c2=O)O[C@@H]1COP(=O)(O)O[C@H]1C[C@H](n2cnc3c(=O)[nH]c(N)nc32)O[C@@H]1COP(=O)(O)O[C@H]1C[C@H](n2cc(C)c(=O)[nH]c2=O)O[C@@H]1COP(=O)(O)O[C@H]1C[C@H](n2cc(C)c(=O)[nH]c2=O)O[C@@H]1COP(=O)(O)O[C@H]1C[C@H](n2cc(C)c(=O)[nH]c2=O)O[C@@H]1COP(=O)(O)O[C@H]1C[C@H](n2cc(C)c(=O)[nH]c2=O)O[C@@H]1COP(=O)(O)O[C@H]1C[C@H](n2cc(C)c(=O)[nH]c2=O)O[C@@H]1COP(=O)(O)O[C@H]1C[C@H](n2cnc3c(=O)[nH]c(N)nc32)O[C@@H]1COP(=O)(O)O[C@H]1C[C@H](n2cnc3c(=O)[nH]c(N)nc32)O[C@@H]1CO (some centres undefined)
The IC50 of the first is 1.6-fold higher: 310 nM for the first, 200 nM for the second.

`CCCCCCCC/C=C\CCCCCCCC(=O)NCCCOCC(O)COP(=O)(O)O[C@H]1C[C@H](n2cc(C)c(=O)[nH]c2=O)O[C@@H]1COP(=O)(O)O[C@H]1C[C@H](n2cnc3c(=O)[nH]c(N)nc32)O[C@@H]1COP(=O)(O)O[C@H]1C[C@H](n2cc(C)c(=O)[nH]c2=O)O[C@@H]1COP(=O)(O)O[C@H]1C[C@H](n2cnc3c(=O)[nH]c(N)nc32)O[C@@H]1COP(=O)(O)O[C@H]1C[C@H](n2cc(C)c(=O)[nH]c2=O)O[C@@H]1COP(=O)(O)O[C@H]1C[C@H](n2cc(C)c(=O)[nH]c2=O)O[C@@H]1COP(=O)(O)O[C@H]1C[C@H](n2cc(C)c(=O)[nH]c2=O)O[C@@H]1COP(=O)(O)O[C@H]1C[C@H](n2cc(C)c(=O)[nH]c2=O)O[C@@H]1COP(=O)(O)O[C@H]1C[C@H](n2cc(C)c(=O)[nH]c2=O)O[C@@H]1COP(=O)(O)O[C@H]1C[C@H](n2cnc3c(=O)[nH]c(N)nc32)O[C@@H]1COP(=O)(O)O[C@H]1C[C@H](n2cnc3c(=O)[nH]c(N)nc32)O[C@@H]1COP(=O)(O)O[C@@H]1C[C@@H](CO)N(C(=O)CCCCCNC(=O)c2ccc(C(=O)O)c(-c3c4ccc(=O)cc-4oc4cc(O)ccc34)c2)C1` (some centres undefined) and `CCCCCCCC/C=C\CCCCCCCC(=O)NCCCOCC(O)COP(=O)(O)O[C@@H]1C[C@@H](COP(=O)(O)O[C@H]2C[C@H](n3cc(C)c(=O)[nH]c3=O)O[C@@H]2COP(=O)(O)O[C@H]2C[C@H](n3cnc4c(=O)[nH]c(N)nc43)O[C@@H]2COP(=O)(O)O[C@H]2C[C@H](n3cc(C)c(=O)[nH]c3=O)O[C@@H]2COP(=O)(O)O[C@H]2C[C@H](n3cnc4c(=O)[nH]c(N)nc43)O[C@@H]2COP(=O)(O)O[C@H]2C[C@H](n3cc(C)c(=O)[nH]c3=O)O[C@@H]2COP(=O)(O)O[C@H]2C[C@H](n3cc(C)c(=O)[nH]c3=O)O[C@@H]2COP(=O)(O)O[C@H]2C[C@H](n3cc(C)c(=O)[nH]c3=O)O[C@@H]2COP(=O)(O)O[C@H]2C[C@H](n3cc(C)c(=O)[nH]c3=O)O[C@@H]2COP(=O)(O)O[C@H]2C[C@H](n3cc(C)c(=O)[nH]c3=O)O[C@@H]2COP(=O)(O)O[C@H]2C[C@H](n3cnc4c(=O)[nH]c(N)nc43)O[C@@H]2COP(=O)(O)O[C@H]2C[C@H](n3cnc4c(=O)[nH]c(N)nc43)O[C@@H]2CO)N(C(=O)CCCCCNC(=O)c2ccc(C(=O)O)c(-c3c4ccc(=O)cc-4oc4cc(O)ccc34)c2)C1` (some centres undefined) are within 1.5-fold of each other in IC50: 20 nM for the first, 23 nM for the second.

For `Cc1cn([C@H]2C[C@H](OP(=O)(S)OC[C@H]3O[C@@H](n4cc(C)c(=O)[nH]c4=O)C[C@@H]3OP(=O)(S)OC[C@H]3O[C@@H](n4cc(C)c(=O)[nH]c4=O)C[C@@H]3OP(=O)(S)OC[C@H]3O[C@@H](n4cnc5c(=O)[nH]c(N)nc54)C[C@@H]3OP(=O)(S)OC[C@H]3O[C@@H](n4cc(C)c(=O)[nH]c4=O)C[C@@H]3OP(=O)(S)OC[C@H]3O[C@@H](n4cnc5c(=O)[nH]c(N)nc54)C[C@@H]3OP(=O)(S)OC[C@H]3O[C@@H](n4cc(C)c(=O)[nH]c4=O)C[C@@H]3OP(=O)(S)OCCCCCCNC(=S)Nc3ccc(-c4c5cc(Br)c(=O)c(Br)c-5oc5c(Br)c(O)c(Br)cc45)c(C(=O)O)c3)[C@@H](COP(=O)(S)O[C@H]3C[C@H](n4cc(C)c(=O)[nH]c4=O)O[C@@H]3COP(=O)(S)O[C@H]3C[C@H](n4cc(C)c(=O)[nH]c4=O)O[C@@H]3COP(=O)(S)O[C@H]3C[C@H](n4cnc5c(=O)[nH]c(N)nc54)O[C@@H]3COP(=O)(S)O[C@H]3C[C@H](n4cnc5c(=O)[nH]c(N)nc54)O[C@@H]3CO)O2)c(=O)[nH]c1=O` (some centres undefined), the IC50 was 18 nM.
